pIC50: −log10 of the molar value. Where no end group is shown, it is not given here.

The target of one assay is HLA-A*0301 (Homo sapiens, UniProt P04439). The assay can be described thus: MHC-peptide binding assay, inhibition of binding of radiolabeled standard peptide. Conditions: read-out: MHC binding affinity HLA-A*0301. From the text: (§1) Assays were as described.
For the next assay, the target named is HLA-A*1101 (Homo sapiens, UniProt P04439, A114D/D185E/E176A/F33Y/L180Q/S129P/T187R). The description is as above. Conditions: unit not given in Table 1 (same values in Table 3 as IC50 nM), newly identified peptides, read-out: Affinity HLA-A*1101.
Source text: as §1

Another assay concerns the target HLA-A*3001 (Homo sapiens, UniProt P04439, D140H/D185E/E176W/F33S/G80R/H175R/K168Q/R138E/R41S). The description is as above. Conditions: read-out: MHC binding affinity HLA-A*3001.
Source text: as §1

Another assay addresses HLA-A*3101 (Homo sapiens, UniProt P04439, A270S/D185E/E176V/E277Q/F33T/G231S/G80R/H175R/I121M/I218V/I322F/K168Q/L300P/L318F/M331R/P217A/Q94H/R138Q/T323A/T345S/T97I/V358M). The description is as above. As to conditions: read-out: MHC binding affinity HLA-A*3101.
Source text: as §1

In a further assay the target is HLA-A*3301 (Homo sapiens, UniProt P04439, A270S/D185E/E176V/E277Q/E87N/F33T/G231S/H175R/I121M/I218V/I322F/K168Q/K210R/L300P/L318F/M331R/P217A/Q86R/Q94H/R138Q/T323A/T345S/T97I/V358M/Y195H). The assay is described as above. As to conditions: read-out: MHC binding affinity HLA-A*3301.
Source text: as §1

The target of the next assay is HLA-A*6801 (Homo sapiens, UniProt P04439, A269V/D185E/E176V/E277Q/E87N/F33Y/G231S/I121M/I166T/I218V/L180W/L300P/L318F/N151K/P208A/P217A/Q86R/R169H/T345S). Described as above. Conditions: read-out: MHC binding affinity HLA-A*6801.
Source text: as §1

The subject of assay [1] is splenocytes of HLA-A*1101 transgenic mice. The assay can be described thus: Ex vivo IFN-γ ELISpot assay with splenocytes of immunized HLA-A*1101 transgenic mice. Type of assay: in vivo. Conditions: Figure 3b; mice immunized with mixture of peptides and adjuvants compared with LpKS9-AM9-RS9. How it is done:
To evaluate peptide immunogenicity, HLA-A*1101 transgenic mice were inoculated subcutaneously (s.c.) at the base of the tail using a 30-gauge needle with single peptides or a mixture of CD8^+ T cell peptides (50 μg of each peptide per mouse) and PADRE ([…]) emulsified in 20 μg of GLA-SE (TLR4 agonist) with or without Pam2Cys. Pam2Cys concentration was 5 mg/ml. For immunization with lipopeptides, HLA-A*1101 mice received 20 nmol lipopeptide dissolved in PBS or emulsified in GLA-SE. As controls, mice were injected with PBS or PBS/GLA-SE. For the lipopeptide immunizations, the mice were vaccinated twice at intervals of three weeks. For the peptide immunizations, mice were immunized three times at intervals of two weeks. For challenge studies, mice were immunized with peptide emulsions and challenged intraperitoneally (i.p.) 14 days post-immunization using 10,000 Type II parasites.
Mice were euthanized 7 to 14 days after immunization. […]
PBMC were obtained, HLA haplotype was determined, and they were processed and cryopreserved as described. […] Results were expressed as number of spot forming cells (SFCs) per 10^6 PBMCs or per 10^6 murine splenocytes.
Two-tailed P values < 0.05 were considered statistically significant. […] The experiment in Figure 7b determined immune response and imaged mice in parallel.

Chain of HLA-A*3001 (P04439 25-365 limits assumed, stated change not applied): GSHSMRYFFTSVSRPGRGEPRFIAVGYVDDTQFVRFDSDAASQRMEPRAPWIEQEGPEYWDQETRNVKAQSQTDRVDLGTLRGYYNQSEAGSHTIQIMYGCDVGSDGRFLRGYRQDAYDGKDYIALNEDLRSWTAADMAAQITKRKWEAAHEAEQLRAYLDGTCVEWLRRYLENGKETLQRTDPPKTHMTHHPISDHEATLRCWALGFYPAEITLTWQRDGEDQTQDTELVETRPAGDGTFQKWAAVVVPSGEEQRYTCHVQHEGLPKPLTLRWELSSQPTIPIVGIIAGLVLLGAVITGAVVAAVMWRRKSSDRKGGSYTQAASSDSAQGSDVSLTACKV

As to AVVSLLRLLK, the pIC50 was 7.77 at HLA-A*0301; 8.09 on HLA-A*3001; 5.89 on HLA-A*3101; 5.96 on HLA-A*3301; 7.03 at HLA-A*6801. Besides, at HLA-A*1101, the IC50 was 34 nM.

RSFKDLLKK: the “IFN-γ production on stimulation of spleen cells by the peptide” value in assay [1] is recorded as “not significant”.

SSAYVFSVK: the pIC50 is 7.92 on HLA-A*0301; 5.74 on HLA-A*3001; 7.01 on HLA-A*3101; 6.74 on HLA-A*3301; 8.68 on HLA-A*6801. In addition, at HLA-A*1101, the IC50 was found to be 10 nM.

Turning to STFWPCLLR, the pIC50 on HLA-A*0301 is 7.66; on HLA-A*3001, 5.90; at HLA-A*3101 it was 8.92; on HLA-A*3301 it was 8.47; on HLA-A*6801, 9.01. Moreover, the IC50 at HLA-A*1101 is 10 nM.

The values are drawn from article PMC3009956, “Human immunome, bioinformatic analyses using HLA supermotifs and the parasite genome, binding assays, studies of human T cell responses, and immunization of HLA-A*1101 transgenic mice including novel adjuvants provide a foundation for HLA-A03 restricted CD8^+T cell epitope based, adjuvanted vaccine …” (Immunome Research, 2010).
